Results as given in patent US10428080B2, “TBK/IKK inhibitor compounds and uses thereof” (Merck Patent GmbH, priority 2015, dated 2019).
Structures can show the parent of a compound that is named as a salt.

Assays:
TBK1 = biological target: T1, TBK1 (Homo sapiens, UniProt Q9UHD2); experiment: TBK Biochemical Assay; settings: read-out: TBK1 IC50
T1 sequence (Q9UHD2 1-729): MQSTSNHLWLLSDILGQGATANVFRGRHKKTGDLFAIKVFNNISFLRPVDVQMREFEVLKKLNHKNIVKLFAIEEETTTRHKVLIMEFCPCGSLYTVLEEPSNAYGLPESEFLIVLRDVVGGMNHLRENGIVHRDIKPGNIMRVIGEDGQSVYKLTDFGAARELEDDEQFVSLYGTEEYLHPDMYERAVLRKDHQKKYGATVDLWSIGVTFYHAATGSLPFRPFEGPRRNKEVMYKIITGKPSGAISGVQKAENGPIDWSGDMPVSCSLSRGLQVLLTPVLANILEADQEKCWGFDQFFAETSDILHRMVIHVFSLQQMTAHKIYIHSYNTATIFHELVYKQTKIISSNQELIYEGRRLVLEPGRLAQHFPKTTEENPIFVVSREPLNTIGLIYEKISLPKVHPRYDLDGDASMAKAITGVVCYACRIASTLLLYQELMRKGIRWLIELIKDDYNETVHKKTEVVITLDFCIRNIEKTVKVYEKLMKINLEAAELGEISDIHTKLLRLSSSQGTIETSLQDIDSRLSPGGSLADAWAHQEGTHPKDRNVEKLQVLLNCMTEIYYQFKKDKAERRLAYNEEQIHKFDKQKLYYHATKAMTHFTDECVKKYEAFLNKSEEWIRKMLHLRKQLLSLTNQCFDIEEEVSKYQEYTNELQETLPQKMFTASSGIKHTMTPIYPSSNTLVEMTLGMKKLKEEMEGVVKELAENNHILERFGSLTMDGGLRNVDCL
Summary of the method: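 Caliper LabChip mobility-shift readout of substrate and product after 90 min of TBK1 reaction at 25° C and stop-buffer addition. Compounds tested in 1:4 serial dilution over 10 points from 30 uM final at 1% DMSO; staurosporine 10 uM final defines full inhibition.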

IKKε = biological target: T2, IKKε (Homo sapiens, UniProt Q14164); experiment: IKKe Biochemical Assay; settings: read-out: IKKε IC50
T2 sequence (Q14164 1-716): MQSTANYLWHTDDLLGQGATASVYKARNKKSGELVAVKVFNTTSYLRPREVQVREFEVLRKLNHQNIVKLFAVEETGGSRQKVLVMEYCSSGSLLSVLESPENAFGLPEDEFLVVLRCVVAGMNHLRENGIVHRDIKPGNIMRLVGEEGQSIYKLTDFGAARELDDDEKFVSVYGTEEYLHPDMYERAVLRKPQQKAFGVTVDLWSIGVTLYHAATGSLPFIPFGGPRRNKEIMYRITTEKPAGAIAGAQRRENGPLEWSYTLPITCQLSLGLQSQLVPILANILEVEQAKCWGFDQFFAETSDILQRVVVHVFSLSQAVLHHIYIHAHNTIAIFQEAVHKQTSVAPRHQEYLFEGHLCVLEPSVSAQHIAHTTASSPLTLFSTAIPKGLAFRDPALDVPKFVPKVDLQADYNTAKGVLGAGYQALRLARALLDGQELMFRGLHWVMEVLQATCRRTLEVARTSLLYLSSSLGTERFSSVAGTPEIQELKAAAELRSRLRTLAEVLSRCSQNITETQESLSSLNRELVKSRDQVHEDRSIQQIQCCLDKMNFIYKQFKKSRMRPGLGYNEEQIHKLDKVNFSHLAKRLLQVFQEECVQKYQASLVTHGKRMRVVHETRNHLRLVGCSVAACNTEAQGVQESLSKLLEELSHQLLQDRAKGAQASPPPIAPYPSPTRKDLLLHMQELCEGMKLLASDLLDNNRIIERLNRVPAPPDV
Summary of the method: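 Activity was measured as mobility-shift separation of phosphorylated from unphosphorylated substrate on a LabChip EZ Reader. Compound was titrated from 30 uM final in 10 points, 1:4 steps, with 1% DMSO, and enzyme plus substrate reacted 90 min at 25° C before stop buffer. Control wells held 10 uM staurosporine.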

Row | Compound | IC50 (TBK1) | IC50 (IKKε)
1 | CN(C)C(=O)c1ccc(-c2cc3nccc(-c4ccc(N5CC[C@H](F)C5)c(C#N)c4)c3o2)nc1 (single isomer, unassigned) [Compound 272, 6-(7-(3-cyano-4-(3-fluoropyrrolidin-1-yl)phenyl)furo[3,2-b]pyridin-2-yl)-N,N-dimethylnicotinamide hydrochloride] | < 100 nM | < 100 nM
2 | C[C@@H]1COC[C@@H](C)C1Oc1ccc(-c2ccnc3cc(-c4ccc(C(=O)N(C)C)cc4)oc23)cc1C#N (single isomer, unassigned) [Compound 220, 4-(7-(3-cyano-4-(3,5-dimethyl-tetrahydro-2H-pyran-4-yloxy)phenyl)furo[3,2-b]pyridin-2-yl)-N,N-dimethylbenzamide hydrochloride] | 100 to 1000 nM | 100 to 1000 nM
3 | COc1cc(C(=O)N(C)C)ccc1-c1cc2nccc(-c3ccc(O[C@@H]4[C@H](C)COC[C@@H]4C)c(C#N)c3)c2o1 [Compound 233, 4-(7-(3-cyano-4-(3,5-dimethyl-tetrahydro-2H-pyran-4-yloxy)phenyl)furo[3,2-b]pyridin-2-yl)-3-methoxy-N,N-dimethylbenzamide] | < 100 nM | < 100 nM
4 | COc1cc(C(=O)N(C)C)ccc1-c1cc2nccc(-c3ccc(OC4CCN(C(C)=O)C4)c(C#N)c3)c2o1 (centres unmarked) [Compound 144, 4-{7-[4-(1-Acetyl-pyrrolidin-3-yloxy)-3-cyano-phenyl]-furo[3,2-b]pyridin-2-yl}-3-methoxy-N,N-dimethyl-benzamide] | < 100 nM | < 100 nM
5 | COc1cc(C(=O)N(C)C)ccc1-c1cc2nccc(-c3ccc(OC4CCN(C(=O)OC(C)(C)C)CC4)c(C#N)c3)c2o1 [Compound 182] | > 5000 nM | > 5000 nM
6 | COc1cc(C(=O)N(C)C)cnc1-c1cc2nccc(-c3ccc(NC4CCOCC4)c(C#N)c3)c2o1 [Compound 270, 6-(7-(3-cyano-4-(tetrahydro-2H-pyran-4-ylamino)phenyl)furo[3,2-b]pyridin-2-yl)-5-methoxy-N,N-dimethylnicotinamide hydrochloride] | < 100 nM | < 100 nM
7 | COc1cc(C(=O)N2C[C@H]3C[C@@H](O)C[C@H]3C2)ccc1-c1cc2nccc(-c3ccc(NC4CCOCC4)c(C#N)c3)c2o1 [Compound 81, 5-{2-[4-((3aR,5R,6aS)-5-Hydroxy-hexahydro-cyclopenta[c]pyrrole-2-carbonyl)-2-methoxy-phenyl]-furo[3,2-b]pyridin-7-yl}-2-(tetrahydro-pyran-4-ylamino)-benzonitrile] | < 100 nM | < 100 nM
8 | COc1cc(C(=O)N2CC(C)(O)C2)ccc1-c1cc2nccc(-c3ccc(OC4CCOCC4)c(C#N)c3)c2o1 [Compound 48, 5-{2-[4-(3-Hydroxy-3-methyl-azetidine-1-carbonyl)-2-methoxy-phenyl]-furo[3,2-b]pyridin-7-yl}-2-(tetrahydro-pyran-4-yloxy)-benzonitrile] | < 100 nM | < 100 nM
9 | COc1cc(C(=O)NCC2CCCCC2(F)F)ccc1-c1cc2nccc(-c3ccc(OC4CCOCC4)c(C#N)c3)c2o1 (centres unmarked) [Compound 151, 4-{7-[3-Cyano-4-(tetrahydro-pyran-4-yloxy)-phenyl]-furo[3,2-b]pyridin-2-yl}-N-(2,2-difluoro-cyclohexylmethyl)-3-methoxy-benzamide] | < 100 nM | < 100 nM
10 | CN(C)C(=O)c1ccc(-c2cc3nccc(-c4ccc(CN5CCOCC5)c(C#N)c4)c3o2)cc1 [Compound 222, 4-(7-(3-cyano-4-(morpholinomethyl)phenyl)furo[3,2-b]pyridin-2-yl)-N,N-dimethylbenzamide] | 100 to 1000 nM | 100 to 1000 nM
11 | COc1cc(C(=O)N(C)C)ccc1-c1cc2ncc(Cl)c(-c3ccc(OC4CCOCC4)c(C#N)c3)c2o1 [Compound 265, 4-(6-chloro-7-(3-cyano-4-(tetrahydro-2H-pyran-4-yloxy)phenyl)furo[3,2-b]pyridin-2-yl)-3-methoxy-N,N-dimethylbenzamide] | 100 to 1000 nM | 100 to 1000 nM
12 | CN(C)C(=O)c1ccc(-c2cc3nccc(-c4cc(F)c(NC5CCOCC5)c(C#N)c4)c3o2)cc1 [Compound 224, 4-(7-(3-cyano-5-fluoro-4-(tetrahydro-2H-pyran-4-ylamino)phenyl)furo[3,2-b]pyridin-2-yl)-N,N-dimethylbenzamide hydrochloride] | 100 to 1000 nM | < 100 nM
13 | COc1cc(C(=O)N2CC3CCC(O)C3C2)ccc1-c1cc2nccc(-c3ccc(NC4CCOCC4)c(C#N)c3)c2o1 (centres unmarked) [Compound 96] | < 100 nM | < 100 nM
14 | COc1cc(C(=O)N(C)CCO)cnc1-c1cc2ncc(OC)c(-c3ccc(OC4CCOCC4)c(C#N)c3)c2o1 [Compound 343, 6-[7-[3-cyano-4-(oxan-4-yloxy)phenyl]-6-methoxyfuro[3,2-b]pyridin-2-yl]-N-(2-hydroxyethyl)-5-methoxy-N-methylpyridine-3-carboxamide] | 100 to 1000 nM | 100 to 1000 nM
15 | CN(C)C(=O)c1ccc(-c2cc3nccc(-c4ccc(OC5CCOCC5)c(C#N)c4)c3o2)c(Cl)c1 [Compound 239, 3-chloro-4-(7-(3-cyano-4-(tetrahydro-2H-pyran-4-yloxy)phenyl)furo[3,2-b]pyridin-2-yl)-N,N-dimethylbenzamide] | < 100 nM | < 100 nM
16 | COc1cc(C(=O)N(C)C)ccc1-c1cc2nccc(-c3ccc(NC4CC(C)OC(C)C4)c(C#N)c3)c2o1 (centres unmarked) [Compound 228, 4-(7-(3-cyano-4-(2,6-dimethyl-tetrahydro-2H-pyran-4-ylamino)phenyl)furo[3,2-b]pyridin-2-yl)-3-methoxy-N,N-dimethylbenzamide] | 100 to 1000 nM | < 100 nM
17 | COc1cc(C(=O)N(C)C)ccc1-c1cc2nccc(-c3ccc(OC4(C(F)(F)F)CCNC4)c(C#N)c3)c2o1 (centres unmarked) [Compound 113, 4-{7-[3-Cyano-4-(3-trifluoromethyl-pyrrolidin-3-yloxy)-phenyl]-furo[3,2-b]pyridin-2-yl}-3-methoxy-N,N-dimethyl-benzamide] | < 100 nM | < 100 nM
18 | CN(C)C(=O)c1ccc(-c2cc3nccc(-c4ccc(OC5CCNCC5)c(C#N)c4)c3o2)nc1 [Compound 190] | > 5000 nM | 100 to 1000 nM
19 | COc1nc(C(=O)N(C)C)ccc1-c1cc2nccc(-c3ccc(OC4CCOCC4)c(C#N)c3)c2o1 [Compound 271, 5-(7-(3-cyano-4-(tetrahydro-2H-pyran-4-yloxy)phenyl)furo[3,2-b]pyridin-2-yl)-6-methoxy-N,N-dimethylpicolinamide] | < 100 nM | < 100 nM
20 | COc1cc(C(=O)N(C)C)ccc1-c1cc2nccc(-c3cc(C#N)c(NC4CCOCC4)c(C4CC4)c3)c2o1 [Compound 308, 4-(7-(3-cyano-5-cyclopropyl-4-(tetrahydro-2H-pyran-4-ylamino)phenyl)furo[3,2-b]pyridin-2-yl)-3-methoxy-N,N-dimethylbenzamide] | > 5000 nM | > 5000 nM
21 | COc1cc(C(=O)N(C)C)ccc1-c1cc2nccc(-c3ccc(NC4CCOCC4)c(C#N)c3)c2o1 [Compound 226, 4-(7-(3-cyano-4-(tetrahydro-2H-pyran-4-ylamino)phenyl)furo[3,2-b]pyridin-2-yl)-3-methoxy-N,N-dimethylbenzamide] | < 100 nM | < 100 nM
22 | N#Cc1cc(-c2ccnc3cc(-c4ccc(C(=O)O)cc4)oc23)ccc1Oc1ccccc1F [Compound 169, 4-{7-[3-Cyano-4-(2-fluoro-phenoxy)-phenyl]-furo[3,2-b]pyridin-2-yl}-benzoic acid] | 100 to 1000 nM | 100 to 1000 nM
